Experimental data published in patent publication US20080089874A1, “DIRECTED DIFFERENTIATION AND MATURATION OF STEM CELL-DERIVED CARDIOMYOCYTES” (The Regents of the University of California, priority 2006, published 2008).
Entries after “also recorded” stand apart in the source; their conditions may differ.

Key:
adult guinea pig LVCMs = format: cell-based
ACMs = format: cell-based, guinea pig

Molecule: CC(=O)OCC[N+](C)(C)C [acetylcholine]
- MDP (adult guinea pig LVCMs): −59.0±1.0 mV
- cycle length (adult guinea pig LVCMs): 293 ± 16 ms
- effect on spontaneous APs (adult guinea pig LVCMs): no effect
- phase 4 slope (adult guinea pig LVCMs): 241±16 mV/s

Molecule: NC1=N[C@H](O)[C@H]2[C@H]3O[C@]4(O)O[C@@H]([C@@H](O)[C@@]2(N1)[C@@H]4O)[C@]3(O)CO [TTX, tetrodotoxin]
- AP overshoot (adult guinea pig LVCMs): disappeared
- change in phase 4 slope and MDP (adult guinea pig LVCMs): no statistical difference
- cycle length (adult guinea pig LVCMs): 328 ± 23 ms
- maximal upstroke velocity of AP (adult guinea pig LVCMs): 5.3±0.6 V/s
- shift in TOP (adult guinea pig LVCMs): 17 mV

Molecule: ZD7288
- APD50 (adult guinea pig LVCMs): 272 ± 31 ms
- effect of ZD7288 on induced If and AP firing (adult guinea pig LVCMs): blocked; also recorded: silenced
- sensitivity of Ad-CGI-HCN1-induced If to HCN blocker (adult guinea pig LVCMs): sensitive
- RMP (ACMs): −47.6±1.2 mV
- effect of If suppression on firing (ACMs): triggered rhythmic firing; also recorded: generated AP

Molecule: CC(C)NCC(O)c1ccc(O)c(O)c1 (centres unmarked) [isoproterenol]
- MDP (adult guinea pig LVCMs): −55.5±0.7 mV
- TOP (adult guinea pig LVCMs): −45.2±0.4 mV
- cycle length (adult guinea pig LVCMs): 182 ± 4.1 ms
- increase in firing rate (adult guinea pig LVCMs): 27%
- midpoint (V1/2) of steady-state activation (adult guinea pig LVCMs): −56.9±1.6 mV
- phase 4 slope (adult guinea pig LVCMs): 350±12 mV/s
